Measured values from US5407956A, “2-amino-1,2,3,4-tetrahydronaphthalene derivatives active on the cardiovascular system, processes for their preparation and pharmaceutical compositions containing them” (Zambon Group S.p.A., priority 1992, dated 1995).
“Also recorded” adds a separate entry of the source. Structures can show the parent of a compound that is named as a salt.

Tests used:
[1] = molecular target: T1, D1 receptor (Rattus norvegicus, UniProt P18901); assay: Receptor binding, D1 receptor, [3H]-SCH23390, rat striatal membranes (part A); set-up: membranes from striatal tissues were prepared; from tissue; host or cells: rat striatum (membranes); species or system rat (Sprague-Dawley); conditions: for Ki: [3H]-SCH23390, rat striatal membranes, Table 1, read-out: Affinity Ki for D1 receptor
T1 sequence (P18901 whole entry): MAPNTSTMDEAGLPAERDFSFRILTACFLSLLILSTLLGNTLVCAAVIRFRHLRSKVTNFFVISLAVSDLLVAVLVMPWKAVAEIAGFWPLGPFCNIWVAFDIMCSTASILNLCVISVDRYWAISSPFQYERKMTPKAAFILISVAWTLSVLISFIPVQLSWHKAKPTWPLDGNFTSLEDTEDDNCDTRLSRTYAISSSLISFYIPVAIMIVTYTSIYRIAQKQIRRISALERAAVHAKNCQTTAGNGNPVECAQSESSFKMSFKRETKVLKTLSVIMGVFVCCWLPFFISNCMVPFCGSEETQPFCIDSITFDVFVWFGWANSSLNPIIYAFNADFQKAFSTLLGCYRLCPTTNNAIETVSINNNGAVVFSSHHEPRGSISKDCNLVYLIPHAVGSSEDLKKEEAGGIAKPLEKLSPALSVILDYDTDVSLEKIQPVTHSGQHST

[2] = molecular target: T1, D1 receptor; assay: biochemical; conditions: [3H]-SCH23390; rat striatal membranes; Table 2; read-out: Binding D1 rat striatum Ki
Protocol: (§1) The tissues were homogenized in 50 mM Tris/HCl buffer, pH 7.4 (1:100 weight/volume).
(§2) The homogenate was centrifuged and the pellet was resuspended, centrifuged again and resuspended in 50 mM Tris/HCl buffer pH 7.4 containing 120 mM NaCl, 5mM KCl, 2mM CaCl2 and 1 mM MgCl2.

[3] = tested on: SHR rats; assay: In vivo antihypertensive activity, systolic blood pressure by tail cuff in conscious SHR rats; set-up: species or system rat (SHR)
Protocol: Male SHR rats, 3-4 months old, fasted 16 hours before the experiment were used. Systolic blood pressure (SBP) and heart rate (HR) were recorded by tail cuff method in conscious animals by means of a BP Recorder (W+W Basile, Italy). Before every pressure determination animals were maintained at 37° C. for 10 minutes.
SBP and HR values were recorded before and at various times up to seven hours after treatment with the tested compounds.
The compounds were administered orally by gavage, in a volume of 10 ml/kg, at doses between 10 and 160 mg/kg. For the administration, the compounds were suspended in carboxymethylcellulose (CMC) 0.5% in water and additioned with Tween 80 (0.3 ml/10 ml of CMC).
The obtained results, expressed as ED30mmHg (mg/kg p.o.) that is the dose causing a decrease of 30 mmHg from the basal value of SBP (about 15% decrease) are the following: […]

[4] = molecular target: T2, D2 receptor (Rattus norvegicus, UniProt P61169); assay: Receptor binding, D2 receptor, [3H]-domperidone, rat striatal membranes (part A); set-up: membranes from striatal tissues were prepared; from tissue; host or cells: rat striatum (membranes); species or system rat (Sprague-Dawley); conditions: for Ki: [3H]-domperidone, rat striatal membranes, Table 1, read-out: Affinity Ki for D2 receptor
T2 sequence (P61169 whole entry): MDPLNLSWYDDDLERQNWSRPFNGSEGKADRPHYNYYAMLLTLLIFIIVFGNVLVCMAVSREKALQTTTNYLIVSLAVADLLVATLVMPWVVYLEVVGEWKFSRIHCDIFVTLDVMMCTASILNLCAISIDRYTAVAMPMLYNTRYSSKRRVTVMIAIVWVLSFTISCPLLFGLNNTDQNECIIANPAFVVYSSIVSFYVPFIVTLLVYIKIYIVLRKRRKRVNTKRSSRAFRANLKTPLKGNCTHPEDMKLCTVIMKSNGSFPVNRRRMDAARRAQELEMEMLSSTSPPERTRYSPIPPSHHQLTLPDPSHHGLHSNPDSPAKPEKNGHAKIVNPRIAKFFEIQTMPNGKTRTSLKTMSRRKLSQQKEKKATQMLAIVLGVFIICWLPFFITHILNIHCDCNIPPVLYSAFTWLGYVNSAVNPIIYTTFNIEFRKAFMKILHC
Protocol: as §1, §2
For D2 -receptor binding studies [^3 H]-domperidone (0.3 nM) was incubated in a volume of 1000 μl containing buffer and a membrane preparation as above described. In addition bovine serum albumine (BSA) (0.01%) was added. The mixture was incubated at 37° C. for 30 minutes for each concentration of the tested compounds.

[5] = molecular target: T3, DA2 (Oryctolagus cuniculus, UniProt G1T1Q0); assay: DA2-agonist activity on electrically stimulated rabbit ear artery; conditions: inhibition of contraction induced by electric stimulation; for EC50: read-out: DA2 rabbit ear artery pD2 (-log EC50) (converted)
T3 construct: Transversal sections (2-3 mm) of rabbit ear artery were suspended in isolated organ baths; from tissue; host or cells: rabbit ear artery (transversal sections)
T3 sequence (G1T1Q0 1-443): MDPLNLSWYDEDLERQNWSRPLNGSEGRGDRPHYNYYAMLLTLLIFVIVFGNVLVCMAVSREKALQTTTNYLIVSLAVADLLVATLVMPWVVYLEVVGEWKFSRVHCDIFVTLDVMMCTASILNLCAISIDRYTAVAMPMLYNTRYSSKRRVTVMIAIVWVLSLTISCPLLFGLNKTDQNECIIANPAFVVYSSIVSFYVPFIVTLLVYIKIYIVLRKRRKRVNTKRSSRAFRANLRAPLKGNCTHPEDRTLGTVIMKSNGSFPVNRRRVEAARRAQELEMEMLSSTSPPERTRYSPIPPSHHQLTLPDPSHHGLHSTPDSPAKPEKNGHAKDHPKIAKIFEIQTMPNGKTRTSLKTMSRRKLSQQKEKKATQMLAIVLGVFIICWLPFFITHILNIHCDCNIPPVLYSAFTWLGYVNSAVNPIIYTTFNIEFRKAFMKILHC
Protocol: DA2 -agonist activity was evaluated as follows. Transversal sections (2-3 mm) of rabbit ear artery were suspended in isolated organ baths containing Krebs-Henseleit solution added with corticosterone (30 μM), desipramine (0.1 μM) and EDTA (10 μM).
The preparation, subjected to a traction of 1 g and to an electric stimulation with field pulses every 5 minutes (10 Hz, 1 msec., 30-60 V, 500 msec. duration) were left stabilize for about 2 hours.
Each preparation was submitted to three increasing concentrations allowing the recovery of the basal conditions before the subsequent administration.

[6] = molecular target: T2, D2 receptor; assay: biochemical; conditions: [3H]-spiperone; rat striatal membranes; Table 2; read-out: Binding D2 rat striatum Ki
Protocol: as §1, §2
The standard incubation conditions (volume 1 ml) for the assay in which [^3 H]-SCH23390 was used were as follows: 50 mM Tris/HCl buffer (pH 7.4), 0.2 nM [^3 H]-SCH23390, a membrane preparation (3 mg/ml corresponding to 130-150 μg proteins/ml), incubation temperature 37° C. and incubation time 15 minutes. The standard incubation conditions (volume 2 ml) for the assay in which [^3 H]-spiperone was used were as follows: 50 mM Tris/HCl buffer (pH 7.4), 0.2 nM [^3 H]-spiperone, a membrane preparation (3 mg/ml corresponding to 130-150 μg proteins/ml), incubation temperature 37° C. and incubation time 15 minutes.

[7] = in words; cited from earlier work
[8] = tested on: dopaminergic receptors; conditions: in words; cited from earlier work

Row | Ki [2] | EC50 [5] | Ki [6] | Compound | other results
1 | 22 µM | 1.05 µM | 0.19 µM | CCCCN(CCCNCCOc1ccc(C)cc1OC)[C@H]1CCc2c(ccc(O)c2O)C1 [Compound 9, (S)-N-butyl-N-[3-[2-[(2-methoxy-4-methyl)phenoxy]ethylamino]propyl]-5,6-dihydroxyl-1,2,3,4-teyrahydro-2-naphthylamine dihydrochloride] | –
2 | 0.41 µM | 0.00339 µM | 0.0055 µM | CCCN(CCCCCCN(C)CCOc1ccccc1OC)[C@H]1CCc2c(ccc(O)c2O)C1 [Compound 10, (S)-N-[2-(5,6-dihydroxy-1,2,3,4-tetrahydro)naphthyl]-N-propyl-N'-methyl-N'-[2-(2-methoxyphenoxy)ethyl]-1,6-hexanediamine dihychloride] | –
3 | 11.7 µM | 1.35 µM | 0.63 µM | CCCCN(CCCCCCN(C)CCOc1ccccc1OC)[C@@H]1CCc2cc(O)c(O)cc2C1 [Compound 11, (R)-N-butyl-N-[2-(6,7-dihydroxy-1,2,3,4-tetrahydro)naphthyl]-N'-methyl-N'-[2-(2-methoxyphenoxy)ethyl]-1,6-hexanediamine dihydrochloride] | –
4 | 0.18 µM | 0.457 µM | 0.0083 µM | CCCN(CCCCCCN(C)CCOc1ccc(C)cc1Cl)[C@H]1CCc2c(ccc(O)c2O)C1 [Compound 12, (S)-N-[2-(5,6-dihydroxy-1,2,3,4-tetrahydro)naphthyl]-N-propyl-N'-methyl-N'-[2-[(2-chloro-4-methyl]phenoxyl]ethyl]-1,6-hexanediamine dihydrochloride] | –
5 | 3.6 µM | 0.00407 µM | 0.0098 µM | CCCN(CCCN(C)CCOc1ccccc1OC)[C@H]1CCc2c(ccc(O)c2O)C1 [Compound 13, (S)-N-propyl-N-[2-(5,6-dihydroxy-1,2,3,4-tetrahydro)naphthyl]-N'-methyl-N'-[2-(2-methoxyphenoxy)ethyl]-1,3-propanediamine dihydrochloride] | –
6 | 2.8 µM | 6.03 µM | 0.26 µM | CCCCN(CCCN(C)CCOc1ccc(C)cc1Cl)[C@@H]1CCc2cc(O)c(O)cc2C1 [Compound 14, (R)-N-butyl-N-[2-(6.,7-dihydroxy-l,2,3,4-tetrahydro)naphthyl]-N'-methyl-N'-[2-[(2-chloro-4-methyl)phenoxy]ethyl]-1.3-propanediamine dihydrochloride] | –
7 | 3.2 µM | 0.447 µM | 1.7 µM | Oc1ccc(CCNCCCCCCNCCc2ccccc2)cc1O [Dopexamine, dopexamine, reference compound] | Agonist activity on dopaminergic receptors relative to dopamine [8]: less active than dopamine; Ki [1]: 2.23 µM; Ki [4]: 0.145 µM; Oral absorption (literature) [7]: not absorbed when administered by oral route

The next lines start with the molecule.

Row | Compound | Ki [2] | EC50 [5] | Ki [6] | other results
8 | CCCN(CCCCCCNCCOc1ccccc1OC)[C@H]1CCc2c(ccc(O)c2O)C1 [Compound 1, S-(-)-N-propyl-N-[6-(2-(2-methoxyphenoxy)ethylamino]hexyl]-5,6-dihydroxy-1,2,3,4-tetrahydro-2-naphthylamine dihydrchloride] | 0.09 µM | 0.00107 µM | 0.0005 µM | Ki [1]: 0.195 µM; Potency on D1 receptors, times more potent than dopamine and dopexamine ([1]; vs dopamine and dopexamine): about 10 times; ED (30 mmHg) ([3]; Rattus norvegicus, oral gavage, about 15% decrease of SBP, read-out: ED30mmHg, dose causing a decrease of 30 mmHg from the basal value of SBP): 22.9 mg/kg; Duration of the antihypertensive effect ([3]; oral): about 4 hours; Ki [4]: 0.004 µM; Potency on D2 receptors, times more potent than dopamine and dopexamine ([4]; vs dopamine and dopexamine): about 100 times
9 | CCCN(CCCCCCNCCOc1ccccc1OC)[C@@H]1CCc2cc(O)c(O)cc2C1 [Compound 2, (R)-N-propyl-N-[6-[2-(2-methoxyphenoxy)ethylamino]hexyl]-6,7-dihydroxyl-1,2,3,4-tetrahydro-2-naphthylamino dihydrochloride] | 0.315 µM | 0.00437 µM | 0.0084 µM | –
10 | CCCCN(CCCCCCNCCOc1ccccc1OC)[C@H]1CCc2c(ccc(O)c2O)C1 [Compound 3, (S)-N-butyl-N-[6-[2-(2-methoxyphenoxy)ethylamino]hexyl]-5,6-dihydroxy-1,2,3,4-tetrahydro-2-naphthylamine dihydrochloride] | 0.56 µM | 0.0295 µM | 0.086 µM | –
11 | CCCCN(CCCCCCNCCOc1ccccc1Cl)[C@H]1CCc2c(ccc(O)c2O)C1 [Compound 4, (S)-N-butyl-N-[6-[2-2-(chlorophenoxy)ethylamino]hexyl]-5,6-dihydroxy-1,2,3,4-tetrahydro-2-naphthylamine dihydrochloride] | 0.7 µM | 0.513 µM | 0.08 µM | –
12 | CCCN(CCCCCCNCCOc1ccc(C)cc1Cl)[C@H]1CCc2c(ccc(O)c2O)C1 [Compound 5, (S)-N-propyl-N-[6-[2-[(2-chloro-4-methyl)phenoxy]ethylamino]-hexyl]-5,6-dihydroxy-1,2,3,4-tetrahydro-2-naphthylamine dihydrochloride] | 0.12 µM | 0.00692 µM | 0.005 µM | –
13 | CCCN(CCCNCCOc1ccccc1OC)[C@H]1CCc2c(ccc(O)c2O)C1 [Compound 7, (S)-N-propyl-N-[3-[2-[(2-methoxyphenoxy)ethylamino]propyl]-5,6-dihydroxy-1,2,3,4-tetrahydro-2-naphthylaminedihydrochloride] | 1.1 µM | 0.00214 µM | 0.0011 µM | –
14 | CCCN(CCCNCCOc1ccccc1Cl)[C@@H]1CCc2cc(O)c(O)cc2C1 [Compound 8, (R)-N-propyl-N-[3-[2-[(2-chlorophenoxy)ethylamino]propyl]-6,7-dihydroxy-1,2,3,4-tetrahydro-2-naphthylaminedihydrochloride] | 2.65 µM | 0.0447 µM | 0.016 µM | –
15 | NCCc1ccc(O)c(O)c1 [Dopamine, dopamine] | – | – | – | Oral absorption (literature) [7]: lack of absorption by opal route; also recorded: not absorbed when administered by oral route; DA2 rabbit ear artery pD2 (-log EC50) [5]: 7.40
